Experimental data published in ChEMBL document CHEMBL6071200, “Discovery of Ring-Annulated Analogues of Cannabidiol as Potential Anticancer Agents: Synthesis and Biological Evaluation” (ACS Med Chem Lett, 2024).
The source made the active and inactive calls. The calls are words filed in the database; no cut-off is given here.

Columns and labels:
SF-126 = test: Anticancer activity against human SF-126 cells; assay type: functional, cell-based
[1] = Selectivity index, ratio of IC50 for HEK293 cells to IC50 for human HCT-116 cells; assay type: toxicity; conditions: HEK293 cells versus HCT-116 cells, read-out: Ratio IC50
[2] = Anticancer activity against mouse GL261 cells; assay type: functional, cell-based
CCRF-CEM = test: Anticancer activity against human CEM cells; assay type: functional, cell-based
HCT-116 [3] = test: Cytotoxicity against human HCT-116 cells assessed as inhibition of cell growth at 20 uM incubated for 48 hrs by SRB assay relative to control; assay type: functional
MCF7 [4] = test: Cytotoxicity against human MCF7 cells assessed as inhibition of cell growth at 20 uM incubated for 48 hrs by SRB assay relative to control; assay type: functional
[5] = Metabolic stability in human liver microsomes assessed as parent compound remaining measured after 30 mins; assay type: ADME, Microsome; conditions: read-out: Stability
MCF7 [6] = test: Induction of apoptosis in human MCF7 cells assessed as necrotic cells at 14.65 uM incubated for 24 hrs by Annexin V-FITC/PI staining based flow cytometric analysis (reference value: 4.02 %); assay type: functional
MCF7 [7] = test: Induction of apoptosis in human MCF7 cells assessed as early apoptotic cells at 14.65 uM incubated for 24 hrs by Annexin V-FITC/PI staining based flow cytometric analysis (reference value: 2.93 %); assay type: functional
MCF7 [8] = test: Anticancer activity against human MCF7 cells assessed as reduction in cell viability at 14.65 uM preincubated with capsazepine for 1 hrs followed by compound addition and measured after 48 hrs by SRB assay; assay type: functional, cell-based
MCF7 [9] = test: Induction of ROS production in human MCF7 cells assessed as DCFDA intensity at 14.6 uM incubated for 24 hrs by flow cytometric analysis (reference value: 0.95 %); assay type: functional
MCF7 [10] = test: Cytotoxicity against human MCF7 cells assessed as inhibition of cell growth incubated for 48 hrs by SRB assay; assay type: functional, cell-based; conditions: MCF7, 48 h
MDA-MB-231 = test: Anticancer activity against human MDA-MB-231 cells; assay type: functional, cell-based
MCF7 [11] = test: Cell cycle arrest in human MCF7 cells assessed as accumulation of cells at G1 phase at 14.65 uM incubated for 24 hrs by PI staining based flow cytometric analysis (reference value: 63.9 %); assay type: functional
T98 = test: Anticancer activity against human T98 cells; assay type: functional, cell-based
NCI-H460 = test: Anticancer activity against human NCI-H460 cells; assay type: functional, cell-based
A549 = test: Anticancer activity against human A549 cells; assay type: functional, cell-based
LNCaP = test: Anticancer activity against human LNCaP cells; assay type: functional, cell-based
[12] = Cytotoxicity against human HEK293 cells assessed as inhibition of cell growth incubated for 48 hrs by SRB assay; assay type: toxicity, cell-based
MCF7 [13] = test: Inhibition of colony formation in human MCF7 cells assessed as reduction in number of colonies at subtoxic doses measured after 48 hrs by crystal violet staining based analysis; assay type: functional, cell-based
EL4 = test: Anticancer activity against mouse EL4 cells; assay type: functional, cell-based
HCT-116 [14] = test: Cytotoxicity against human HCT-116 cells assessed as inhibition of cell growth incubated for 48 hrs by SRB assay; assay type: functional, cell-based; conditions: HCT-116, 48 h
MCF7 [15] = test: Anticancer activity against human MCF7 cells; assay type: functional, cell-based
[16] = Selectivity index, ratio of IC50 for HEK293 cells to IC50 for human MCF7 cells; assay type: toxicity; conditions: HEK293 cells versus MCF7 cells, read-out: Ratio IC50
MCF7 [17] = test: Anticancer activity against human MCF7 cells assessed as reduction in cell viability at 14.65 uM incubated for 48 hrs by SRB assay relative to control; assay type: functional
MCF7 [18] = test: Anticancer activity against human MCF7 cells assessed as reduction in cell viability at 14.65 uM preincubated with GW9662 for 1 hrs followed by compound addition and measured after 48 hrs by SRB assay; assay type: functional, cell-based
SW480 = test: Anticancer activity against human SW480 cells; assay type: functional, cell-based
MCF7 [19] = test: Induction of apoptosis in human MCF7 cells assessed as late apoptotic cells at 14.65 uM incubated for 24 hrs by Annexin V-FITC/PI staining based flow cytometric analysis (reference value: 4.85 %); assay type: functional
MCF7 [20] = test: Anticancer activity against human MCF7 cells assessed as reduction in cell viability at 14.65 uM preincubated with SR144528 for 1 hrs followed by compound addition and measured after 48 hrs by SRB assay; assay type: functional, cell-based
MCF7 [21] = test: Induction of apoptosis in human MCF7 cells assessed as viable cells at 14.65 uM incubated for 24 hrs by Annexin V-FITC/PI staining based flow cytometric analysis (reference value: 88.20 %); assay type: functional; conditions: read-out: Activity
MCF7 [22] = test: Cell cycle arrest in human MCF7 cells assessed as accumulation of cells at S phase at 14.65 uM incubated for 24 hrs by PI staining based flow cytometric analysis (reference value: 22.93 %); assay type: functional
C6 = test: Anticancer activity against rat C6 cells; assay type: functional, cell-based
T47D = test: Anticancer activity against human T47D cells; assay type: functional, cell-based
RBL-2H3 = test: Anticancer activity against rat RBL-2H3 cells; assay type: functional, cell-based
MCF7 [23] = test: Induction of mitochondrial membrane loss in human MCF7 cells assessed as fold change at 14.6 uM incubated for 24 hrs by Mitotracker dye based flow cytometric analysis relative to control; assay type: functional
[24] = Anticancer activity against human MZC cells; assay type: functional, cell-based
[25] = Anticancer activity against mouse Thymocyte; assay type: toxicity, cell-based; conditions: thymocytes
Caco-2 = test: Anticancer activity against human Caco-2 cells; assay type: functional, cell-based
MCF7 [26] = test: Anticancer activity against human MCF7 cells assessed as reduction in cell viability at 14.65 uM preincubated with ML-193 for 1 hrs followed by compound addition and measured after 48 hrs by SRB assay; assay type: functional, cell-based
[27] = Anticancer activity against KiMol cells (unknown origin); assay type: functional, cell-based; conditions: KiMol cell
MCF7 [28] = test: Cell cycle arrest in human MCF7 cells assessed as accumulation of cells at G2/M phase at 14.65 uM incubated for 24 hrs by PI staining based flow cytometric analysis (reference value: 13.7 %); assay type: functional
CYP450 = CYP450 (Homo sapiens, UniProt P04798+P05177+P05181+P08684+P10632+P10635+P11509+P11712+P13584+P20813+P20815+P20853+P24462+P24903+P33260+P33261+P51589+P78329+P98187+Q02928+Q08477+Q16678+Q16696+Q5TCH4+Q6VVX0+Q7Z449+Q8TAV3+Q96SQ9+Q9HB55); test: Inhibition of CYP450 in human liver microsomes at <1 uM by cocktail-mixture based assay relative to control; assay type: ADME, Microsome; design: dose or concentration left out as unconfirmed; conditions: probe cocktail mixture
AGS = test: Anticancer activity against human AGS cells; assay type: functional, cell-based
DU-145 = test: Anticancer activity against human DU-145 cells; assay type: functional, cell-based
HL-60 = test: Anticancer activity against human HL-60 cells; assay type: functional, cell-based
MCF7 [29] = test: Anticancer activity against human MCF7 cells assessed as reduction in cell viability at 14.65 uM preincubated with LY320135 for 1 hrs followed by compound addition and measured after 48 hrs by SRB assay; assay type: functional, cell-based

C=C(C)[C@@H]1CCC(C)=C[C@H]1c1c(O)cc(CCCCC)cc1O [CANNABIDIOL]
IC50 (SF-126): 1.2 µM
selectivity ratio [1]: 9.7
IC50 [2]: 1.2 µM
IC50 (CCRF-CEM): 6.3 µM
inhibition at 20 µM (HCT-116 [3]): 77.3%
inhibition at 20 µM (MCF7 [4]): 59.1%
remaining at 0.5 h [5]: 17%
Activity (MCF7 [6]): 2.38%
Activity (MCF7 [7]): 6.33%
Activity (MCF7 [8]): Active
Activity (MCF7 [9]): 15.11%
IC50 (MCF7 [10]): 14.6 µM
IC50 (MDA-MB-231): 1.3 µM
Activity (MCF7 [11]): 75.12%
IC50 (T98): 1.2 µM
IC50 (NCI-H460): 2.8 µM
IC50 (A549): 2.8 µM
IC50 (LNCaP): 5.06 µM
IC50 at 48 h [12]: 95.2 µM
inhibition (MCF7 [13]): Active
IC50 (EL4): 7.01 µM
IC50 (HCT-116 [14]): 9.8 µM
IC50 (MCF7 [15]): 1.3 µM
selectivity ratio [16]: 6.5
Activity (MCF7 [17]): 52.46%
Activity (MCF7 [18]): Active
IC50 (SW480): 5.95 µM
Activity (MCF7 [19]): 10.14%
Activity (MCF7 [20]): Active
viability at 14.65 µM (MCF7 [21]): 81.1%
Activity (MCF7 [22]): 6.84%
IC50 (C6): 1.2 µM
IC50 (T47D): 1.3 µM
IC50 (RBL-2H3): 6.3 µM
fold change (FC) (MCF7 [23]): 3.4
IC50 [24]: 1.2 µM
IC50 [25]: 7.01 µM
IC50 (Caco-2): 5.95 µM
Activity (MCF7 [26]): Active
IC50 [27]: 6 µM
Activity (MCF7 [28]): 18.04%
inhibition (CYP450): > 50%
IC50 (AGS): 7.5 µM
IC50 (DU-145): 5.06 µM
IC50 (HL-60): 6.3 µM
Activity (MCF7 [29]): Active
